The values below come from patent US20260076935A1, “PREVENTION AND TREATMENT OF CONDITIONS USING ETHYL PYRUVATE” (The Trustees of Columbia University in the City of New York, priority 2023, published 2026).

The subject of data set [1] is early onset Lmx1b developmental glaucoma model. In words: Ocular developmental abnormalities (iridocorneal adhesions, anterior chamber depth) in Lmx1b glaucoma mice. It is filed as in vivo. The source says: As shown in FIGS. 4-6, in addition to preventing or treating high IOP, treatment of mice harboring an early onset Lmx1b developmental glaucoma model with ethyl pyruvate, alone or in combination with a metabolite boosting agent, unexpectedly rescued ocular developmental abnormalities. […] Ethyl pyruvate's ability to treat or prevent IOP elevation ocular developmental abnormalities was surprising at least because such effects have not been observed with sodium pyruvate treatments.

The subject of data set [2] is early-onset Lmx1b developmental glaucoma model. In words: Intraocular pressure (IOP) in mice with early-onset Lmx1b developmental glaucoma model. It is filed as in vivo. The source says:
Ethyl pyruvate's ability to treat or prevent IOP elevation ocular developmental abnormalities was surprising at least because such effects have not been observed with sodium pyruvate treatments.

The test system of data set [3] is early onset Lmx1b developmental glaucoma model. In words: Glaucomatous optic nerve damage (neurodegeneration) in Lmx1b glaucoma mice. It is filed as in vivo. The conditions noted are these: FIG. 8.
For data set [4] the following is noted: multiple mammalian species, including humans, mice, rats, and horses; cited from earlier work.
Data set [5] can be described thus: Long-term dosing of mice, adverse effects. It is filed as in vivo. The conditions noted are these: mice dosed for at least up to nine months. The method, then:
Ethyl pyruvate was sourced from Sigma-Aldrich. […] See, e.g., Clinical Trial Identifier NCT00107666 (human cardiac trial, dosing ethyl pyruvate at 7.5 g (90 mg/kg) intravenously, every six hours for two days); Xiujing Sun et al., Ethyl Pyruvate Supplemented in Drinking Water Ameliorates Experimental Nonalcoholic Steatohepatitis, 137 Biomedical Pharmacotherapy 111392 (2021); Leilei Mao et al., Ethyl Pyruvate Improves White Matter Remodeling in Rats After Traumatic Brain Injury, 27 CNS Neuroscience & Therapeutics 113 (2021); C. C. Jacobs et al, Ethyl Pyruvate Diminishes the Inflammatory Response to Lipopolysaccharide Infusion in Horses, 45 Equine Veterinary J. 333 (2013). […] Furthermore, ethyl pyruvate is an FDA-approved food additive and flavoring agent.

Data set [6] concerns age-onset mouse glaucoma models. In words: IOP in age-onset mouse glaucoma models. It is filed as in vivo. The procedure: In some embodiments, one or more of these factors may lead to glaucoma. In some embodiments, the mouse model is a Lmx1b mouse model. This is unexpected at least because sodium pyruvate had no effect on IOP in age-onset mouse glaucoma models, or in the early-onset Lmx1b developmental glaucoma model. For example, treatment of Lmx1b mice with about 500 mg/kg/day of sodium pyruvate had no effect on IOP at 2, 3, and 4-months post-treatment. This is also unexpected at least because calcium pyruvate had no effect on IOP in humans in prior clinical studies.

For data set [7] the following is noted: prior clinical studies; cited from earlier work.
Setting [8] is: about 500 mg/kg/day, 2, 3, and 4-months post-treatment, Lmx1b mice.

For the molecule `CCOC(=O)C(C)=O` [ethyl pyruvate], the anterior chamber deepening entry in data set [1] (FIGS. 5-6) is on record as “significant effect in preventing or reducing anterior chamber deepening”. Further, in data set [1] (ethyl pyruvate 2000 mg/kg/day, FIG. 4), the “incidence and severity of iridocorneal adhesions” value was “less incidence and severity”. In addition, the IOP result is “lessening of IOP” in data set [2] (ethyl pyruvate 500 mg/kg/day, out to two months of age, FIG. 1) and “lessening of IOP” in data set [2] (ethyl pyruvate 2000 mg/kg/day, FIG. 2). Moreover, the “glaucomatous optic nerve damage (neurodegeneration)” value in data set [3] (ethyl pyruvate 2000 mg/kg/day, mice aged to six months) was “lessening of glaucomatous optic nerve damage”. The safety and tolerability result in data set [4] is “safe and well-tolerated”. In addition, in data set [5], the adverse effects result is recorded as “without adverse effects”.

For `NC(=O)c1cccnc1` [nicotinamide], the “glaucomatous optic nerve damage” value in data set [3] (nicotinamide 550 mg/kg/day) is reported as “protective from glaucomatous optic nerve damage”.

`CC(=O)C(=O)[O-].[Na+]` [sodium pyruvate]: the “severity of anterior eye developmental abnormalities” value in data set [1] (setting [8]) is reported as “no effect”; in data set [1] (sodium pyruvate 500 mg/kg/day), “no change”. Moreover, the IOP entry in data set [2] (setting [8]) and in data set [6] was “no effect” each time. For the same molecule, the IOP elevation entry in data set [2] (sodium pyruvate 500 mg/kg/day, after two months, FIG. 7) was “no effect”. The “IOP compared to untreated” value in data set [2] (sodium pyruvate 500 mg/kg/day, at three and four months) is “no changes were observed”.

Consider calcium pyruvate, for which, in data set [7], the IOP in humans result is listed as “no effect”.
